Columns and labels:
DOPr = tested on: DOPr; parameters: method as in PMID 24174495; conditions: cited from earlier work
Flag‐DOPr = assay: DOPr recycling after recovery from agonist‐induced internalization in primary cortical neuron cultures; type: cell-based, Murine; conditions: for Surface labelling after recovery / Intracellular immunoreactivity after 60 min recovery vs immediately after treatment: 10 µmol/L; for Surface labelling after recovery / Effect of ECE2 inhibitor 6634449 on redistribution of internalized receptors during recovery: 60 min; for Surface labelling after recovery: then 60 min recovery, non‐permeabilized neurons; for Intracellular immunoreactivity after 60 min recovery vs immediately after treatment: then 60 min recovery in absence of ligand, permeabilized neurons; for Effect of ECE2 inhibitor 6634449 on redistribution of internalized receptors during recovery: agonist 10 µmol/L, 6634449 20 μmol/L during 60 min recovery
Experimental: Primary neuronal cultures were prepared from rat post‐natal prefrontal cortex (P0‐P2) as previously described. ^19 Briefly, three cultures were independently prepared from 8 to 12 pups each. Pups were cryo‐anaesthetized, and brains were removed and transferred into ice‐cold dissociation solution (NaS0_4 90 mmol/L; K2SO4 30 mmol/L; MgCl2 5.8 mmol/L; CaCl20.25 mmol/L; HEPES 10 mmol/L; glucose 20 mmol/L; pH 7.4). Following dissection, the frontal cortex was digested in papain solution (20 U/mL; 40 minutes at 37°C), and the product passed through Pasteur pipettes of progressively decreasing diameter for mechanical dissociation. The suspension obtained was centrifuged, and cells were then resuspended and diluted to a density of 2.5 million/mL, before plating onto glass coverslips pre‐coated with collagen/poly l‐lysine (each at 0.1 mg/mL). Culture proceeded in supplemented Neurocell medium (B27 4%; 100 U/mL penicillin‐streptomycin; GlutaMAX 2%; FBS 10%) for 24 hours. Coverslips were then transferred to a six‐well plate containing 2 mL of Neurocell medium/well and transfected with Flag‐DOPr (8 µg/well), using a calcium phosphate transfection protocol previously. ^19 Murine DORs tagged with the Flag epitope at the N terminus were a generous gift from Dr M. von Zastrow (University of California at San Francisco, San Francisco, CA).
Immunolabelling of surface receptors for quantification of trafficking was performed as previously described. ^19 Briefly, primary cultures expressing Flag‐DOPrs were incubated at 37°C with Neurocell medium containing Ca^2+‐dependent mouse anti‐Flag M1 antibody (1:100; Sigma). After 30 minutes incubation with the antibody, vehicle (0.05% DMSO in Neurocell) or agonist (TIPP, deltorphin II; SNC‐80; SB235863; 10 μmol/L) was added to the medium for 60 minutes. At the end of this period, cultured neurons were washed at 37°C once in calcium‐free PBS and then in PBS in order to remove treatment agonist as well as antibody bound to receptors that may have remained at the membrane after agonist exposure. For visualization of internalized receptors, cultures were immediately fixed with 4% PFA, permeabilized with PBS/0.1% Triton (20 minutes at room temperature (RT)), blocked with PBS/BSA 1% (10 minutes at RT) and incubated with secondary antimouse Alexa 488‐conjugated donkey antibody (1:1000; Invitrogen, A21202). Alternatively, cultured neurons were allowed to recover for 60 minutes in the absence of ligand before a second round of calcium‐free PBS wash was completed before fixation, permeabilization and incubation with secondary antibody. The latter procedure allowed to remove antibody bound to Flag‐DOPrs that translocated to the surface during recovery ensuring the exclusive labelling of receptors that were retained intracellularly. ^26 Another set of neurons was similarly treated with agonist or vehicle and then allowed to recover for 60 minutes following which they were fixed and incubated with secondary antibody without permeabilization, so as to exclusively reveal Flag‐DOPrs that reappeared at the surface during recovery from internalization; measures of surface labelling were normalized to intracellular labelling produced during internalization. Recycling was thus established by taking two independent measures: (a) cytoplasmic labelling density lost during recovery from treatment and (b) gain in surface labelling density when neurons were allowed to recover from agonist‐induced internalization. In experiments in which 6634449 was introduced in the medium during recovery, the concentration used was 20 μmol/L.
Cytoplasmic and surface labelling densities were quantified with ImageJ using a previously described method, ^27 with small modifications. ^16 In particular, total cytoplasmic labelling density was obtained by measuring fluorescence intensity within the region confined between the external and nuclear perimeters, and dividing this value by the corresponding area. […]

[1] = peptidic ligands; cited from earlier work
[2] = tested on: endothelin‐converting enzyme 2 (ECE2); conditions: endosomal protease that functions at acidic pH; cited from earlier work
Description: Indeed, deltorphin II is a naturally occurring opioid peptide ^32 and TIPP is an opioid peptide analogue. ^33 On the other hand, SNC‐80 ^34 and SB235863 ^35 are synthetic, non‐peptide ligands.

CCC(C)COC(=O)c1[nH]c2c(c1C)CC1C3Cc4ccc(OC)c5c4C1(CCN3C)C2O5.Cl (stereo not drawn) [SB235863, [8R‐(4bS*,8aα,8aβ,12bβ)]7,10‐dimethyl‐1‐methoxy‐11‐(2‐ethylpropyl)oxycarbonyl 5,6,7,8,12,12b‐hexahydro‐(9H)‐4,8‐methanobenzofuro[3,2‐e]pyrrolo[2,3‐g]isoquinoline hydrochloride]
Decay of cAMP inhibition in HEK cells (DOPr): slow decay
Surface labelling after recovery (Flag‐DOPr): less
Intracellular immunoreactivity after 60 min recovery vs immediately after treatment (Flag‐DOPr): not different from the one observed immediately after the end of treatment
Effect of ECE2 inhibitor 6634449 on redistribution of internalized receptors during recovery (Flag‐DOPr): without effect

C=CCN1C[C@H](C)N([C@H](c2ccc(C(=O)N(CC)CC)cc2)c2cccc(OC)c2)C[C@H]1C [SNC‐80, (+)‐4‐[(αR)‐α‐((2S,5R)‐4‐allyl‐2,5‐dimethyl‐1‐piperazinyl)‐3‐methoxybenzyl]‐N,N‐diethylbenzamide]
Decay of cAMP inhibition in HEK cells (DOPr): fast decay
Surface labelling after recovery (Flag‐DOPr): less
Intracellular immunoreactivity after 60 min recovery vs immediately after treatment (Flag‐DOPr): not different from the one observed immediately after the end of treatment
Effect of ECE2 inhibitor 6634449 on redistribution of internalized receptors during recovery (Flag‐DOPr): without effect

deltorphin II
Blood‐brain barrier penetration [1]: poor blood‐brain barrier penetration
Decay of cAMP inhibition in HEK cells (DOPr): fast decay
Intracellular immunoreactivity after 60 min recovery vs immediately after treatment (Flag‐DOPr): significantly reduced
Effect of ECE2 inhibitor 6634449 on redistribution of internalized receptors during recovery (Flag‐DOPr): remain trapped in the cytosol
Substrate of ECE2 [2]: one of the ECE2 substrates
